Assays:
[1] = system: HL-60 cells (human promyelocytic leukemia cells); assay: In vitro combination assay with HL-60 cells (Cell Titer Glo); type: cell-based; settings: Homo sapiens, single agent, 111 nM, 72 hours, read-out: proliferative inhibition
Experimental: In vitro Combination Assay with HL-60 cells. […] HL-60 cells are reported to express the wild-type IDH2 gene/protein. […] Concentrations of enasidenib were tested at: 0, 0.1, 0.3, 1.3, 6.4, 32, 160, 800, 4,000 and 20,000 nM. The combinations were evaluated in a full checkerboard titration. The extent of proliferation at 72 hours was determined by addition of Cell Titer Glo, and the percent inhibition calculated as referenced to vehicle/DMSO treated HL-60 cells.

[2] = system: AML subject derived cell lines; assay: Proliferation of AML subject-derived cells (Celltiter Glo); type: cell-based, human; settings: 72 hours, five AML subject derived cell lines (FIG. 4e)
[3] = system: VEGFA protein production in HT1080 cells; assay: VEGFA protein production as surrogate for inhibition of DHODH function; type: cell-based, human; settings: blocked by added uridine, not adenosine, cytidine, guanosine (FIG. 1d)
Experimental: (§1) Determination of ELISA EC50 and Cytotoxicity CC50: All ELISAs were performed using commercially available ELISA kits (R&D Systems) according to the manufacturer's instructions. The screen of 240 cell lines were performed in Crown Bioscience (Shanghai, China). […] Data generated from ELISA or cytotoxicity studies were plotted with Prism software, with the Y-axis typically representing the % inhibition and the X-axis representing log compound concentration. A sigmoid dose response with a variable slope regression curve was generated for each compound. Maximal inhibition was set at 100% and minimal at 0%. EC50 and CC50 values were automatically calculated after curve fitting using the Prism software.

MOLM-13 AML cells = assay: MOLM-13 human acute myeloid leukemia xenograft model; type: in vivo; settings: nude mice, flank tumor; vehicle 7 days (FIG. 6)
Experimental: Human Xenograft Model: HT1080 or MOLM-13 tumor cells in log phase growth (5-10×10^6 cells/mouse, depending on cell lines) were implanted subcutaneously in male athymic nude mice. When the average tumor size reached the indicated size, mice were randomly divided into groups (10-15 mice/group) and administered vehicle or test compounds orally, once a day or twice per day as indicated. Tumor size was measured using calipers at periodic intervals during the study and tumor volume was calculated as L×W^2/2, in which L represents the longest and W is the shortest diameter of the tumors. At the end of the experiments, tumors were excised and homogenized on ice in Tris-HCl buffer containing a cocktail of proteinase inhibitors using a Powergen homogenizer fitted with Omni-Tip disposable/reusable probes (both from Fisher Scientific). Intratumoral levels of growth factors and proteins were measured using commercially available ELISA kits (R&D Systems). Protein concentrations of the homogenates were measured (Bio-Rad protein assay kit) and intratumoral growth factor levels normalized to the total protein concentration.

[4] = system: MOLT-4 human ALL tumor cells; assay: MOLT-4 human acute lymphoblastic leukemia lethality model; type: in vivo; settings: NOD/SCID mice, 10 mg/kg qd
Experimental: Doxorubicin was tested at the highest dose tolerated by NOD/SCID mice.
Systemic Leukemia Lethality Model: Male NOD-SCID mice were inoculated with MOLT-4 human ALL tumor cells (1×10^7 cells in 200 μL PBS) by intravenous (IV) injection. […] The mice were dosed and observed until moribund, at which time they were euthanized. At 2- and 4-weeks post-inoculation, whole blood was obtained from 5 mice per group by retro-orbital bleeding, stained with an antibody against human CD45, and the number of CD45-positive cells was determined by FACs. Data in FIG. 5b represents % of human CD45+ from blood of each mouse; where * indicates p<0.05, one way ANOVA, with multiple comparisons vs vehicle.

DHODH = DHODH (Homo sapiens, UniProt Q02127); assay: Pull-down with Cpd 1-linked Sepharose beads, Western blot; type: binding; parameters: 1 mL of cell lysate solution (2 mg/mL protein) was added to each reaction tube; endogenous in cells
DHODH, sequence (Q02127 whole entry): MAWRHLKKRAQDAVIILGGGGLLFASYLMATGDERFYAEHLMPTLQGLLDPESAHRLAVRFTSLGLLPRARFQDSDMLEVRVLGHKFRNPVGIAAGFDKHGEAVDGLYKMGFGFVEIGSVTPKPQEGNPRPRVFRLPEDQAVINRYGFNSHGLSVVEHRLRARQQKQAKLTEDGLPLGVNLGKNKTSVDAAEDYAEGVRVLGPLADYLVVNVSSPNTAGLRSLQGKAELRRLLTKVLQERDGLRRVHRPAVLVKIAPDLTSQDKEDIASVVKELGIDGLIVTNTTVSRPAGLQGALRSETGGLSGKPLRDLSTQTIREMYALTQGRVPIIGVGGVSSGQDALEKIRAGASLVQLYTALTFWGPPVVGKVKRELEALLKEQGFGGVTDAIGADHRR
Source text: Western Blot Analysis. […] Subsequently, the conditioned medium was harvested by mixing with equal volume of 2×SDS-PAGE sample buffer (Bio-Rad). […] Proteins in the samples were resolved on a Tris-glycine Criterion gel (Bio-Rad) and transferred onto a 0.45 μm nitrocellulose membrane. […] Antibody (C1) specific for VEGFA was purchased from Santa Cruz Biotechnologies, CA (1:200 dilution); Antibody specific for human β-actin was purchased from Abcam (1:10000 dilution); Antibody specific for V5-tag was purchased from Invitrogen (1:5000 dilution). […] Immunodetection was done using the corresponding secondary antibodies conjugated with infrared dyes or horseradish peroxide. The expression levels of proteins were detected with Odyssey (LI-COR) or using enhanced chemiluminescence (Pierce, Rockford, Ill.).
The wet Sepharose 6B was diluted with pH 11 phosphate/NaOH buffer (5 mL). […] The reaction mixture was stirred further 24 hours at 40° C.
Cells in log phase growth were washed with cold PBS once and then collected by trypsin digestion. […] Proteins in the eluted samples were identified via LC-MS/MS or western blot analysis.

[5] = Blood-brain barrier penetration, whole-body autoradiography; type: in vivo; settings: evaluation, rats
[6] = system: panel of 240 tumor cell lines; assay: Tumor cell line panel proliferation (CellTiter-Glo); type: cell-based; settings: IC50≤2 μM (FIG. 4a)
Experimental: as §1

[7] = target: T1, DHODH (mitochondria isolated from K562 cells) (Homo sapiens, UniProt Q02127); assay: DHODH activity with purified mitochondria as enzyme source; type: biochemical; settings: 30 minutes of treatment (FIG. 2c)
T1 construct: Mitochondria were isolated from K562 cells in log phase growth with a Dounce homogenizer; endogenous in cells; host or cells: K562 cells (isolated mitochondria)
T1 sequence (Q02127 whole entry): as above

[8] = system: de novo pyrimidine nucleotide synthesis in HT1080 cells; assay: 15N-glutamine tracing study: pyrimidine nucleotide synthesis metabolites by LC-MS/MS; type: cell-based, human; settings: 100 nM, 8 hours, vs 0.5% DMSO, LC/MS (FIG. 1a)

Which inhibition at 0.111 µM [1] does the source give for COc1ccc([C@H]2c3[nH]c4ccc(Cl)cc4c3CCN2C(=O)Oc2ccc(Cl)cc2)cc1 [Cpd 1, 4-chlorophenyl (S)-6-chloro-1-(4-methoxyphenyl)-1,3,4,9-tetrahydro-2H-pyrido[3,4-b]indole-2-carboxylate] here?
Its inhibition at 0.111 µM is ~20%.

And the inhibition of proliferation [2]?
Its inhibition of proliferation is “inhibition of proliferation in all five AML subject derived cell lines tested”.

What about the VEGFA protein production [3] of the same compound?
Its VEGFA protein production is “inhibition of VEGFA protein production”.

And the “median time to reach a tumor volume of 1000 mm^3” value (MOLM-13 AML cells)?
The value was 23 days.

What about the “number of circulating MOLT-4 cells (CD45+)” value ([4]; compared to doxorubicin (FIG. 5b)) of the same compound?
The value was “significantly reduced”.

What about the “median survival time (MST)” value ([4]; vehicle 46 days, p<0.05) of the same compound?
The value was 136 days.

What about the “competitive elution of DHODH from Cpd 1 beads by free compound” value (DHODH; Competing Off (FIG. 2b)) of the same compound?
The value was “selectively eluted”.

What about the “binding of DHODH to Cpd 1-linked beads after preincubation with free compound” value (DHODH; Competing On, Western blot (FIG. 2a)) of the same compound?
Its value is “inhibited”.

What about the blood-brain barrier penetration [5] of the same compound?
The blood-brain barrier penetration was “penetrates the blood-brain barrier”.

And the hematopoietic lines sensitive ([6]; 32/56 lines)?
The hematopoietic lines sensitive was 57%.

What about the “solid tumor lines sensitive” value ([6]; 34/184 lines) of the same compound?
Its value is 18%.

What about the “inhibition of DHODH activity (orotate production by LC-MS/MS)” value [7] of the same compound?
Its value is “more potently than did teriflunomide and with similar potency as brequinar”.

What about the “total levels of deoxy-pyrimidine nucleotides (dCTP and dTTP) but not deoxy-purine nucleotides dATP and dGTP” value [8] of the same compound?
Its value is “selectively decreased”.

— patent US11458126B2, “DHODH inhibitor for use in treating hematologic cancers” (PTC THERAPEUTICS, INC., priority 2017, dated 2022)
